Reference: ChEMBL document CHEMBL1201861, “Genomics of Drug Sensitity in Cancer screening data, Wellcome Trust Sanger Institute”

What was measured:
DG-75 = test: cells; assay type: functional, cell-based, Homo sapiens; settings: Homo sapiens, DG-75
Description: SANGER: Inhibition of human DG-75 cell growth in a cell viability assay.

ECC4 = test: cells; assay type: functional, cell-based, Homo sapiens; settings: Homo sapiens, ECC4
Description: SANGER: Inhibition of human ECC4 cell growth in a cell viability assay.

G-402 = test: cells; assay type: functional, cell-based, Homo sapiens; settings: Homo sapiens, G-402
Description: SANGER: Inhibition of human G-402 cell growth in a cell viability assay.

GCT = test: cells; assay type: functional, cell-based, Homo sapiens; settings: Homo sapiens, GCT
Description: SANGER: Inhibition of human GCT cell growth in a cell viability assay.

GDM-1 = test: cells; assay type: functional, cell-based, Homo sapiens; settings: Homo sapiens, GDM-1
Description: SANGER: Inhibition of human GDM-1 cell growth in a cell viability assay.

HCC1395 = test: cells; assay type: functional, cell-based, Homo sapiens; settings: Homo sapiens, HCC1395
Description: SANGER: Inhibition of human HCC1395 cell growth in a cell viability assay.

HCC1806 = test: cells; assay type: functional, cell-based, Homo sapiens; settings: Homo sapiens, HCC1806
Description: SANGER: Inhibition of human HCC1806 cell growth in a cell viability assay.

HLE = test: cells; assay type: functional, cell-based, Homo sapiens; settings: Homo sapiens, HLE
Description: SANGER: Inhibition of human HLE cell growth in a cell viability assay.

HO-1-N-1 = test: cells; assay type: functional, cell-based, Homo sapiens; settings: Homo sapiens, HO-1-N-1
Description: SANGER: Inhibition of human HO-1-N-1 cell growth in a cell viability assay.

HSC-4 = test: cells; assay type: functional, cell-based, Homo sapiens; settings: Homo sapiens, HSC-4
Description: SANGER: Inhibition of human HSC-4 cell growth in a cell viability assay.

Hs-578T = test: cells; assay type: functional, cell-based, Homo sapiens; settings: Homo sapiens, Hs-578T
Description: SANGER: Inhibition of human Hs-578-T cell growth in a cell viability assay.

Huh-7 = test: cells; assay type: functional, cell-based, Homo sapiens; settings: Homo sapiens, Huh-7
Description: SANGER: Inhibition of human HuH-7 cell growth in a cell viability assay.

IST-SL2 = test: cells; assay type: functional, cell-based, Homo sapiens; settings: Homo sapiens, IST-SL2
Description: SANGER: Inhibition of human IST-SL2 cell growth in a cell viability assay.

JIYOYE = test: cells; assay type: functional, cell-based, Homo sapiens; settings: Homo sapiens, JIYOYE
Description: SANGER: Inhibition of human JiyoyeP-2003 cell growth in a cell viability assay.

KYSE-270 = test: cells; assay type: functional, cell-based, Homo sapiens; settings: Homo sapiens, KYSE-270
Description: SANGER: Inhibition of human KYSE-270 cell growth in a cell viability assay.

L-540 = test: cells; assay type: functional, cell-based, Homo sapiens; settings: Homo sapiens, L-540
Description: SANGER: Inhibition of human L-540 cell growth in a cell viability assay.

MCF7 = test: cells; assay type: functional, cell-based, Homo sapiens; settings: Homo sapiens, MCF7
Description: SANGER: Inhibition of human MCF7 cell growth in a cell viability assay.

MDA-MB-231 = test: cells; assay type: functional, cell-based, Homo sapiens; settings: Homo sapiens, MDA-MB-231
Description: SANGER: Inhibition of human MDA-MB-231 cell growth in a cell viability assay.

MIA PaCa-2 = test: cells; assay type: functional, cell-based, Homo sapiens; settings: Homo sapiens, MIA PaCa-2
Description: SANGER: Inhibition of human MIA-PaCa-2 cell growth in a cell viability assay.

NCI-H1563 = test: cells; assay type: functional, cell-based, Homo sapiens; settings: Homo sapiens, NCI-H1563
Description: SANGER: Inhibition of human NCI-H1563 cell growth in a cell viability assay.

NCI-H187 = test: cells; assay type: functional, cell-based, Homo sapiens; settings: Homo sapiens, NCI-H187
Description: SANGER: Inhibition of human NCI-H187 cell growth in a cell viability assay.

NCI-H2030 = test: cells; assay type: functional, cell-based, Homo sapiens; settings: Homo sapiens, NCI-H2030
Description: SANGER: Inhibition of human NCI-H2030 cell growth in a cell viability assay.

NCI-H2122 = test: cells; assay type: functional, cell-based, Homo sapiens; settings: Homo sapiens, NCI-H2122
Description: SANGER: Inhibition of human NCI-H2122 cell growth in a cell viability assay.

NCI-H522 = test: cells; assay type: functional, cell-based, Homo sapiens; settings: Homo sapiens, NCI-H522
Description: SANGER: Inhibition of human NCI-H522 cell growth in a cell viability assay.

NCI-H596 = test: cells; assay type: functional, cell-based, Homo sapiens; settings: Homo sapiens, NCI-H596
Description: SANGER: Inhibition of human NCI-H596 cell growth in a cell viability assay.

OAW-28 = test: cells; assay type: functional, cell-based, Homo sapiens; settings: Homo sapiens, OAW-28
Description: SANGER: Inhibition of human OAW-28 cell growth in a cell viability assay.

P31-FUJ = test: cells; assay type: functional, cell-based, Homo sapiens; settings: Homo sapiens, P31-FUJ
Description: SANGER: Inhibition of human P31-FUJ cell growth in a cell viability assay.

RERF-LC-MS = test: cells; assay type: functional, cell-based, Homo sapiens; settings: Homo sapiens, RERF-LC-MS
Description: SANGER: Inhibition of human RERF-LC-MS cell growth in a cell viability assay.

RPMI 8402 = test: SANGER: Inhibition of human RPMI-8402 cell growth in a cell viability assay.; assay type: functional, cell-based; settings: Homo sapiens, RPMI 8402; read-out: IC50
SCC-25 = test: cells; assay type: functional, cell-based, Homo sapiens; settings: Homo sapiens, SCC-25
Description: SANGER: Inhibition of human SCC-25 cell growth in a cell viability assay.

SK-OV-3 = test: cells; assay type: functional, cell-based, Homo sapiens; settings: Homo sapiens, SK-OV-3
Description: SANGER: Inhibition of human SK-OV-3 cell growth in a cell viability assay.

SKG-IIIa = test: cells; assay type: functional, cell-based, Homo sapiens; settings: Homo sapiens, SKG-IIIa
Description: SANGER: Inhibition of human SKG-IIIa cell growth in a cell viability assay.

SNU-449 = test: cells; assay type: functional, cell-based, Homo sapiens; settings: Homo sapiens, SNU-449
Description: SANGER: Inhibition of human SNU-449 cell growth in a cell viability assay.

SW1417 = test: cells; assay type: functional, cell-based, Homo sapiens; settings: Homo sapiens, SW1417
Description: SANGER: Inhibition of human SW1417 cell growth in a cell viability assay.

T98G = test: cells; assay type: functional, cell-based, Homo sapiens; settings: Homo sapiens, T98G
Description: SANGER: Inhibition of human T98G cell growth in a cell viability assay.

647-V = test: cells; assay type: functional, cell-based, Homo sapiens; settings: Homo sapiens, 647-V
Description: SANGER: Inhibition of human 647-V cell growth in a cell viability assay.

A2780 = test: cells; assay type: functional, cell-based, Homo sapiens; settings: Homo sapiens, A2780
Description: SANGER: Inhibition of human A2780 cell growth in a cell viability assay.

A-427 = test: cells; assay type: functional, cell-based, Homo sapiens; settings: Homo sapiens, A-427
Description: SANGER: Inhibition of human A427 cell growth in a cell viability assay.

A673 = test: cells; assay type: functional, cell-based, Homo sapiens; settings: Homo sapiens, A673
Description: SANGER: Inhibition of human A673 cell growth in a cell viability assay.

AU565 = test: cells; assay type: functional, cell-based, Homo sapiens; settings: Homo sapiens, AU565
Description: SANGER: Inhibition of human AU565 cell growth in a cell viability assay.

BL-70 = test: SANGER: Inhibition of human BL-70 cell growth in a cell viability assay.; assay type: functional, cell-based; settings: Homo sapiens, BL-70
BOKU = test: cells; assay type: functional, cell-based, Homo sapiens; settings: Homo sapiens, BOKU
Description: SANGER: Inhibition of human BOKU cell growth in a cell viability assay.

THP-1 = test: cells; assay type: functional, cell-based, Homo sapiens; settings: Homo sapiens, THP-1
Description: SANGER: Inhibition of human THP-1 cell growth in a cell viability assay.

U2OS = test: cells; assay type: functional, cell-based, Homo sapiens, U-2-OS; settings: Homo sapiens, U2OS
Description: SANGER: Inhibition of human U-2-OS cell growth in a cell viability assay.

UMUC3 = test: cells; assay type: functional, cell-based, Homo sapiens; settings: Homo sapiens, UMUC3
Description: SANGER: Inhibition of human UM-UC-3 cell growth in a cell viability assay.

YT = test: cells; assay type: functional, cell-based, Homo sapiens; settings: Homo sapiens, YT
Description: SANGER: Inhibition of human YT cell growth in a cell viability assay.

COLO-680N = test: cells; assay type: functional, cell-based, Homo sapiens; settings: Homo sapiens, COLO-680N
Description: SANGER: Inhibition of human COLO-680N cell growth in a cell viability assay.

## N#Cc1c(O)c2c(-c3ccc(-c4ccccc4O)cc3)csc2[nH]c1=O
DG-75
  IC50: > 1020 nM
ECC4
  IC50: 509 nM
G-402
  IC50: > 1020 nM
GCT
  IC50: > 1020 nM
GDM-1
  IC50: 25.5 nM
HCC1395
  IC50: > 1020 nM
HCC1806
  IC50: > 1020 nM
HLE
  IC50: > 1020 nM
HO-1-N-1
  IC50: > 1020 nM
HSC-4
  IC50: > 1020 nM
Hs-578T
  IC50: > 1020 nM
Huh-7
  IC50: > 1020 nM
IST-SL2
  IC50: > 1020 nM
JIYOYE
  IC50: 83.7 nM
KYSE-270
  IC50: > 1020 nM
L-540
  IC50: 848 nM
MCF7
  IC50: > 1020 nM
MDA-MB-231
  IC50: > 1020 nM
MIA PaCa-2
  IC50: > 1020 nM
NCI-H1563
  IC50: > 1020 nM
NCI-H187
  IC50: 545 nM
NCI-H2030
  IC50: > 1020 nM
NCI-H2122
  IC50: > 1020 nM
NCI-H522
  IC50: > 1020 nM
NCI-H596
  IC50: > 1020 nM
OAW-28
  IC50: > 1020 nM
P31-FUJ
  IC50: > 1020 nM
RERF-LC-MS
  IC50: > 1020 nM
RPMI 8402
  IC50: 442 nM
SCC-25
  IC50: > 1020 nM
SK-OV-3
  IC50: > 1020 nM
SKG-IIIa
  IC50: > 1020 nM
SNU-449
  IC50: > 1020 nM
SW1417
  IC50: > 1020 nM
T98G
  IC50: > 1020 nM
647-V
  IC50: > 1020 nM
A2780
  IC50: > 1020 nM
A-427
  IC50: > 1020 nM
A673
  IC50: > 1020 nM
AU565
  IC50: > 1020 nM
BL-70
  IC50: 108 nM
BOKU
  IC50: > 1020 nM
THP-1
  IC50: 342 nM
U2OS
  IC50: > 1020 nM
UMUC3
  IC50: > 1020 nM
YT
  IC50: 46.7 nM
COLO-680N
  IC50: > 1020 nM

## Cc1ccc(-c2c(C(=O)CCl)n(CCCO)c3ncnc(N)c23)cc1
DG-75
  IC50: > 4000 nM
ECC4
  IC50: > 4000 nM
GDM-1
  IC50: > 4000 nM
IST-SL2
  IC50: > 4000 nM
JIYOYE
  IC50: > 4000 nM
L-540
  IC50: > 4000 nM
NCI-H187
  IC50: > 4000 nM
P31-FUJ
  IC50: > 4000 nM
RPMI 8402
  IC50: > 4000 nM
BL-70
  IC50: > 4000 nM
BOKU
  IC50: > 4000 nM
THP-1
  IC50: > 4000 nM
YT
  IC50: > 4000 nM

## C#Cc1cccc(Nc2ncnc3cc(OCCOC)c(OCCOC)cc23)c1 [ERLOTINIB]
DG-75
  IC50: > 2000 nM
ECC4
  IC50: > 2000 nM
GDM-1
  IC50: > 2000 nM
IST-SL2
  IC50: > 2000 nM
JIYOYE
  IC50: > 2000 nM
L-540
  IC50: > 2000 nM
NCI-H187
  IC50: > 2000 nM
P31-FUJ
  IC50: > 2000 nM
BL-70
  IC50: > 2000 nM
THP-1
  IC50: > 2000 nM
YT
  IC50: > 2000 nM
